According to patent publication US20110086826A1, “LIPOSOMAL CAMPTOTHECINS AND USES THEREOF” (TEKMIRA PHARMACEUTICALS CORPORATION, priority 2000, published 2011):

How the values were obtained:
[1] = Pharmacokinetic and in vivo leakage studies; set-up: species or system ICR mice; conditions: plasma, i.v.
Description: 5. Pharmacokinetic and in vivo leakage studies. […] Two different drug-to-lipid ratios, i.e., 0.10 (w/w) and 0.02 (w/w), were used to examine the influence of drug-to-lipid ratio and lipid dose on drug leakage and PK behavior. Encapsulated topotecan was administered at 1 mg/kg (10 or 50 mg/kg lipid) and 5 mg/kg topotecan (50 mg/kg lipid). […] Total topotecan in blood was determined by a fluorescence assay preceded by precipitation of plasma proteins. Topotecan was quantified by spectrofluorimetry at an excitation (2.5 nm slit width) and emission wavelength (2.5 nm slit width) of 380 and 518 nm, respectively. Lipid levels in plasma were determined by liquid scintillation counting of the [^3H]-CHE label.
All parameters were derived from one or two-compartment models using WINNONLIN PK modeling software.

[2] = Myelosuppression and neutropenia studies (blood CBC and differential); assay type: in vivo, ICR mice; conditions: 10 mg/kg i.v.
Description: (§2) Myelosuppression and neutropenia studies. […] Empty vesicles were administered as a control. CBC and differential analysis was performed at Central Labs for Veterinarians (Langley, BC) to quantify cellular levels, ratios and morphology.

Serum chemistry panel = assay type: in vivo, ICR mice; conditions: 10 mg/kg i.v., day 3 post-injection
Description: as §2

L1210 murine leukemia = test: Intravenous L1210 murine leukemia model; conditions: for % ILS (increase in lifespan) / DRD (drug related deaths) / MWL (maximum mean weight loss) / TF (tumor free animals at end of study): L1210 i.v.
Description: FIG. 3. […] L1210 cells (10^5 cells in 200 μl) were injected i.v. into the tail vein of BDF-1 mice on day 0. […] Each group consisted of 8 animals. Data is from NCTEF-005.
(§1) In the above formula, MTD is the maximum tolerated dose, defined as that dose that causes a mean weight loss of 20% in a group of animals; and MED is the minimal effective dose, defined as the dose that produces an optimal % T/C value of ≦40 in the solid tumor models or an % ILS of 50±10% in the survival models.

[3] = tested on: CT-26 murine colon metastases; test: Intrasplenic CT-26 murine colon metastases model; conditions: for % ILS (increase in lifespan) / DRD (drug related deaths) / MWL (maximum mean weight loss) / TF (tumor free animals at end of study): CT-26 i.s.
Description: FIG. 4. […] CT-26 cells (10^4 cells in 50 μl) were injected into the spleen of Balb/c mice on day 0. […] Each group consisted of 8 animals. Data is from NCTEF-002.
as §1

[4] = tested on: MX-1 human breast xenografts; test: Subcutaneous MX-1 human breast xenografts
Description: FIG. 5. […] Data is from NCTEF-004.
FIG. 7. […] Data is from NCTEF-006.
FIG. 8. […] Data is from NCTEF-009.

[5] = day 3 post-injection (first line of treatment)
[6] = day 21 post-injection (second line of treatment)
[7] = L1210, single i.v. dose, highest dose of free topotecan

CC[C@@]1(O)C(=O)OCc2c1cc1n(c2=O)Cc2cc3c(CN(C)C)c(O)ccc3nc2-1 [Free, 9-dimethylaminomethyl-10-hydroxy-camptothecin]
α1/2 ([1]; 1 mg/kg): 0.14 h
β1/2 ([1]; 1 mg/kg): 11.8 h
α1/2 ([1]; 5 mg/kg): 0.26 h
β1/2 ([1]; 5 mg/kg): 11.4 h
Baso ([2]; day 3 post-injection): 0.057 ± 0.040 ×10^9/L
Eosino ([2]; day 3 post-injection): 0.031 ± 0.021 ×10^9/L
Lympho ([2]; day 3 post-injection): 5.90 ± 1.70 ×10^9/L
Mono ([2]; day 3 post-injection): 0.177 ± 0.072 ×10^9/L
Neutro ([2]; day 3 post-injection): 0.520 ± 0.200 ×10^9/L
WBC ([2]; day 3 post-injection): 6.70 ± 1.95 ×10^9/L
Hb [2, 5]: 136 ± 05 g/L
Hc [2, 5]: 0.444 ± 0.012 L/L
PLT [2, 5]: 879 ± 145 ×10^9/L
RBC [2, 5]: 8.47 ± 0.39 ×10^12/L
Baso ([2]; day 21 post-injection): 0.088 ± 0.071 ×10^9/L
Eosino ([2]; day 21 post-injection): 0.034 ± .016 ×10^9/L
Lympho ([2]; day 21 post-injection): 4.33 ± 0.93 ×10^9/L
Mono ([2]; day 21 post-injection): 0.247 ± 0.180 ×10^9/L
Neutro ([2]; day 21 post-injection): 0.480 ± 0.122 ×10^9/L
WBC ([2]; day 21 post-injection): 5.16 ± 1.18 ×10^9/L
Hb [2, 6]: 154 ± 04 g/L
Hc [2, 6]: 0.493 ± 0.014 L/L
PLT [2, 6]: 907 ± 059 ×10^9/L
RBC [2, 6]: 9.81 ± 0.37 ×10^12/L
ALT (Serum chemistry panel): 13 ± 23 IU/L
Albumin (Serum chemistry panel): 32.8 ± 1.3 g/L
BUN (Serum chemistry panel): 9.4 ± 3.2 mmol/L
Bilirubin (Serum chemistry panel): 3.8 ± 0.8 µmol/L
CPK (Serum chemistry panel): 56 ± 38 IU/L
Creatinine (Serum chemistry panel): 82 ± 18 µmol/L
Globulin (Serum chemistry panel): 15.2 ± 1.1 g/L
TP (Serum chemistry panel): 48.0 ± 2.1 g/L
long-term survivors (day 60) (L1210 murine leukemia; [7]): one long-term survivor
median survival (L1210 murine leukemia; [7]): 13 days
% ILS (increase in lifespan) (L1210 murine leukemia; single i.v. dose 5 mg/kg): 11%
DRD (drug related deaths) (L1210 murine leukemia; single i.v. dose 5 mg/kg): 0/8
MWL (maximum mean weight loss) (L1210 murine leukemia; single i.v. dose 5 mg/kg): +
TF (tumor free animals at end of study) (L1210 murine leukemia; single i.v. dose 5 mg/kg): 0/8
% ILS (increase in lifespan) (L1210 murine leukemia; single i.v. dose 10 mg/kg): 22%
DRD (drug related deaths) (L1210 murine leukemia; single i.v. dose 10 mg/kg): 0/8
MWL (maximum mean weight loss) (L1210 murine leukemia; single i.v. dose 10 mg/kg): +
TF (tumor free animals at end of study) (L1210 murine leukemia; single i.v. dose 10 mg/kg): 0/8
% ILS (increase in lifespan) (L1210 murine leukemia; single i.v. dose 20 mg/kg): 33%
DRD (drug related deaths) (L1210 murine leukemia; single i.v. dose 20 mg/kg): 0/8
MWL (maximum mean weight loss) (L1210 murine leukemia; single i.v. dose 20 mg/kg): +
TF (tumor free animals at end of study) (L1210 murine leukemia; single i.v. dose 20 mg/kg): 0/8
DRD (drug related deaths) (L1210 murine leukemia; single i.v. dose 30 mg/kg): 0/8
MWL (maximum mean weight loss) (L1210 murine leukemia; single i.v. dose 30 mg/kg): +
TF (tumor free animals at end of study) (L1210 murine leukemia; single i.v. dose 30 mg/kg): 0/8
DRD (drug related deaths) (L1210 murine leukemia; single i.v. dose 40 mg/kg): 0/8
MWL (maximum mean weight loss) (L1210 murine leukemia; single i.v. dose 40 mg/kg): +
TF (tumor free animals at end of study) (L1210 murine leukemia; single i.v. dose 40 mg/kg): 0/8
% ILS ([3]; CT-26, single dose, over the dose range 5-40 mg/kg): 23-60%
% ILS (increase in lifespan) ([3]; single i.v. dose 5 mg/kg): 31%
DRD (drug related deaths) ([3]; single i.v. dose 5 mg/kg): 0/8
MWL (maximum mean weight loss) ([3]; single i.v. dose 5 mg/kg): +
TF (tumor free animals at end of study) ([3]; single i.v. dose 5 mg/kg): 0/8
% ILS (increase in lifespan) ([3]; single i.v. dose 10 mg/kg): 23%
DRD (drug related deaths) ([3]; single i.v. dose 10 mg/kg): 0/8
MWL (maximum mean weight loss) ([3]; single i.v. dose 10 mg/kg): +
TF (tumor free animals at end of study) ([3]; single i.v. dose 10 mg/kg): 0/8
DRD (drug related deaths) ([3]; single i.v. dose 40 mg/kg): 0/8
MWL (maximum mean weight loss) ([3]; single i.v. dose 40 mg/kg): −0.4%
TF (tumor free animals at end of study) ([3]; single i.v. dose 40 mg/kg): 1/8
anti-tumor activity (in words) ([4]; MX-1, q7d×3, 5 or 10 mg/kg/dose): little activity was observed
% ILS (increase in lifespan) ([4]; MX-1 s.c., q3dx4, 1.25 mg/kg/dose i.v.): 20%
